Measured values reported in patent US20240423992A1, “BIOMARKERS FOR TREATING LIVER DISORDERS WITH THR-B AGONISTS AND RELATED USES” (Madrigal Pharmaceuticals, Inc., priority 2023, published 2024).

Experiments:
[1] = system: adults with nonalcoholic fatty liver disease (NAFLD)/presumed nonalcoholic steatohepatitis (NASH); assay: 52-week Phase 3 trial (Example 1): thyroid hormone levels; assay type: in vivo, human; details: for FT3 (not on thyroxine) LSM Difference / FT3 (thyroxine-treated) LSM Difference / FT3/rT3 (not on thyroxine) LSM Difference / FT3/rT3 (thyroxine-treated) LSM Difference / FT3/rT3 LSM Difference / FT3 LSM Difference / FT4 (not on thyroxine) LSM Difference in % CFB / FT4 (not on thyroxine) LSM Difference in CFB / FT4 (thyroxine-treated) LSM Difference in % CFB / FT4 (thyroxine-treated) LSM Difference in CFB / FT4 LSM Difference in % CFB / FT4 LSM Difference in CFB / TBG (not on thyroxine) LSM Difference / TBG (thyroxine-treated) LSM Difference / TBG LSM Difference / TSH (not on thyroxine) LSM Difference / TSH (thyroxine-treated) LSM Difference / TSH LSM Difference / rT3 (not on thyroxine) LSM Difference / rT3 (thyroxine-treated) LSM Difference / rT3 LSM Difference / FT3 (not on thyroxine) LSM CFB / FT3 (thyroxine-treated) LSM CFB / FT3/rT3 (not on thyroxine) LSM CFB / FT3/rT3 (thyroxine-treated) LSM CFB / FT3/rT3 LSM CFB / FT3 LSM CFB / FT4 (not on thyroxine) LSM % CFB / FT4 (not on thyroxine) LSM CFB / FT4 (thyroxine-treated) LSM % CFB / FT4 (thyroxine-treated) LSM CFB / FT4 LSM % CFB / FT4 LSM CFB / TBG (not on thyroxine) LSM CFB / TBG (thyroxine-treated) LSM CFB / TBG LSM CFB / TSH (not on thyroxine) LSM CFB / TSH (thyroxine-treated) LSM CFB / TSH LSM CFB / rT3 (not on thyroxine) LSM CFB / rT3 (thyroxine-treated) LSM CFB / rT3 LSM CFB: Week 52
Experimental: A 52-week randomized, double-blind, placebo-controlled Phase 3 trial was conducted to evaluate the safety and effect of resmetirom, an oral, once-daily, liver-targeted thyroid hormone receptor-β selective agonist, on multiple biomarkers in adults with nonalcoholic fatty liver disease (NAFLD)/presumed nonalcoholic steatohepatitis (NASH). Patients were randomized to three double-blind arms (100 mg resmetirom, 80 mg resmetirom, or placebo) or one open-label arm (100 mg resmetirom). Common concomitant medications across the 4 arms were antidiabetes drugs (such as glucagon-like peptide-1 receptor agonists (GLP-1 RAs), metformin, pioglitazone, and sodium/glucose cotransporter-2 inhibitors (SGLT2i)) and drugs to manage dyslipidemia (statins).
Sex hormone levels after 52 weeks of resmetirom treatment are shown in Table A. Thyroid hormone levels after 52 weeks of resmetirom treatment are reported in Table B.

[2] = system: patients with Nonalcoholic Steatohepatitis; assay: Phase 3 trial in Nonalcoholic Steatohepatitis (Example 2): NASH resolution and fibrosis improvement on biopsy; assay type: in vivo, human
Experimental: A randomized, double-blind, placebo-controlled Phase 3 trial was conducted. Patients were randomly assigned to receive resmetirom 80 mg, resmetirom 100 mg, or placebo administered orally once daily. Screening biopsy results were used as baseline for histologic variables and a second biopsy was performed at Week 52.

[3] = Resmetirom 80 mg DB vs Placebo DB
[4] = Resmetirom 100 mg DB vs Placebo DB

SMILES: CC(C)c1cc(Oc2c(Cl)cc(-n3nc(C#N)c(=O)[nH]c3=O)cc2Cl)n[nH]c1=O [Resmetirom, 2-[3,5-dichloro-4-[(6-oxo-5-propan-2-yl-1H-pyridazin-3-yl)oxy]phenyl]-3,5-dioxo-1,2,4-triazine-6-carbonitrile]
- FT3 (not on thyroxine) LSM Difference [1, 3]: 0.1 ng/L
- FT3 (thyroxine-treated) LSM Difference [1, 3]: 0.0 ng/L
- FT3/rT3 (not on thyroxine) LSM Difference [1, 3]: 0.05
- FT3/rT3 (thyroxine-treated) LSM Difference [1, 3]: 0.03
- FT3/rT3 LSM Difference [1, 3]: 0.05
- FT3 LSM Difference [1, 3]: 0.1 ng/L
- FT4 (not on thyroxine) LSM Difference in % CFB [1, 3]: −11.0%
- FT4 (not on thyroxine) LSM Difference in CFB [1, 3]: -0.1 ng/dL
- FT4 (thyroxine-treated) LSM Difference in % CFB [1, 3]: −10.2%
- FT4 (thyroxine-treated) LSM Difference in CFB [1, 3]: -0.1 ng/dL
- FT4 LSM Difference in % CFB [1, 3]: −10.8%
- FT4 LSM Difference in CFB [1, 3]: -0.1 ng/dL
- TBG (not on thyroxine) LSM Difference [1, 3]: -1.2 mg/L
- TBG (thyroxine-treated) LSM Difference [1, 3]: -0.6 mg/L
- TBG LSM Difference [1, 3]: -1.1 mg/L
- TSH (not on thyroxine) LSM Difference [1, 3]: 0.0 mIU/L
- TSH (thyroxine-treated) LSM Difference [1, 3]: −0.3 mIU/L
- TSH LSM Difference [1, 3]: −0.0 mIU/L
- rT3 (not on thyroxine) LSM Difference [1, 3]: -3.3 ng/dL
- rT3 (thyroxine-treated) LSM Difference [1, 3]: -4.4 ng/dL
- rT3 LSM Difference [1, 3]: -3.4 ng/dL
- FT3 (not on thyroxine) LSM CFB ([1]; Resmetirom 80 mg DB): -0.1 ng/L
- FT3 (thyroxine-treated) LSM CFB ([1]; Resmetirom 80 mg DB): 0.0 ng/L
- FT3/rT3 (not on thyroxine) LSM CFB ([1]; Resmetirom 80 mg DB): 0.04
- FT3/rT3 (thyroxine-treated) LSM CFB ([1]; Resmetirom 80 mg DB): 0.03
- FT3/rT3 LSM CFB ([1]; Resmetirom 80 mg DB): 0.04
- FT3 LSM CFB ([1]; Resmetirom 80 mg DB): -0.0 ng/L
- FT4 (not on thyroxine) LSM % CFB ([1]; Resmetirom 80 mg DB): −9.9%
- FT4 (not on thyroxine) LSM CFB ([1]; Resmetirom 80 mg DB): -0.1 ng/dL
- FT4 (thyroxine-treated) LSM % CFB ([1]; Resmetirom 80 mg DB): −6.4%
- FT4 (thyroxine-treated) LSM CFB ([1]; Resmetirom 80 mg DB): -0.1 ng/dL
- FT4 LSM % CFB ([1]; Resmetirom 80 mg DB): −9.6%
- FT4 LSM CFB ([1]; Resmetirom 80 mg DB): -0.1 ng/dL
- TBG (not on thyroxine) LSM CFB ([1]; Resmetirom 80 mg DB): -0.5 mg/L
- TBG (thyroxine-treated) LSM CFB ([1]; Resmetirom 80 mg DB): 1.5 mg/L
- TBG LSM CFB ([1]; Resmetirom 80 mg DB): 0.6 mg/L
- TSH (not on thyroxine) LSM CFB ([1]; Resmetirom 80 mg DB): −0.3 mIU/L
- TSH (thyroxine-treated) LSM CFB ([1]; Resmetirom 80 mg DB): −0.9 mIU/L
- TSH LSM CFB ([1]; Resmetirom 80 mg DB): −0.4 mIU/L
- rT3 (not on thyroxine) LSM CFB ([1]; Resmetirom 80 mg DB): -2.5 ng/dL
- rT3 (thyroxine-treated) LSM CFB ([1]; Resmetirom 80 mg DB): -3.8 ng/dL
- rT3 LSM CFB ([1]; Resmetirom 80 mg DB): -2.7 ng/dL
- FT3 (not on thyroxine) LSM Difference [1, 4]: 0.0 ng/L
- FT3 (thyroxine-treated) LSM Difference [1, 4]: -0.0 ng/L
- FT3/rT3 (not on thyroxine) LSM Difference [1, 4]: 0.05
- FT3/rT3 (thyroxine-treated) LSM Difference [1, 4]: 0.04
- FT3/rT3 LSM Difference [1, 4]: 0.05
- FT3 LSM Difference [1, 4]: 0.0 ng/L
- FT4 (not on thyroxine) LSM Difference in % CFB [1, 4]: −15.4%
- FT4 (not on thyroxine) LSM Difference in CFB [1, 4]: -0.2 ng/dL
- FT4 (thyroxine-treated) LSM Difference in % CFB [1, 4]: −23.0%
- FT4 (thyroxine-treated) LSM Difference in CFB [1, 4]: -0.3 ng/dL
- FT4 LSM Difference in % CFB [1, 4]: −16.1%
- FT4 LSM Difference in CFB [1, 4]: -0.2 ng/dL
- TBG (not on thyroxine) LSM Difference [1, 4]: -0.3 mg/L
- TBG (thyroxine-treated) LSM Difference [1, 4]: -2.4 mg/L
- TBG LSM Difference [1, 4]: -0.5 mg/L
- TSH (not on thyroxine) LSM Difference [1, 4]: −0.1 mIU/L
- TSH (thyroxine-treated) LSM Difference [1, 4]: 0.0 mIU/L
- TSH LSM Difference [1, 4]: −0.1 mIU/L
- rT3 (not on thyroxine) LSM Difference [1, 4]: -3.8 ng/dL
- rT3 (thyroxine-treated) LSM Difference [1, 4]: -5.5 ng/dL
- rT3 LSM Difference [1, 4]: -3.9 ng/dL
- FT3 (not on thyroxine) LSM CFB ([1]; Resmetirom 100 mg DB): -0.1 ng/L
- FT3 (thyroxine-treated) LSM CFB ([1]; Resmetirom 100 mg DB): -0.0 ng/L
- FT3/rT3 (not on thyroxine) LSM CFB ([1]; Resmetirom 100 mg DB): 0.04
- FT3/rT3 (thyroxine-treated) LSM CFB ([1]; Resmetirom 100 mg DB): 0.04
- FT3/rT3 LSM CFB ([1]; Resmetirom 100 mg DB): 0.04
- FT3 LSM CFB ([1]; Resmetirom 100 mg DB): -0.1 ng/L
- FT4 (not on thyroxine) LSM % CFB ([1]; Resmetirom 100 mg DB): −14.3%
- FT4 (not on thyroxine) LSM CFB ([1]; Resmetirom 100 mg DB): -0.2 ng/dL
- FT4 (thyroxine-treated) LSM % CFB ([1]; Resmetirom 100 mg DB): −19.2%
- FT4 (thyroxine-treated) LSM CFB ([1]; Resmetirom 100 mg DB): -0.2 ng/dL
- FT4 LSM % CFB ([1]; Resmetirom 100 mg DB): −14.9%
- FT4 LSM CFB ([1]; Resmetirom 100 mg DB): -0.2 ng/dL
- TBG (not on thyroxine) LSM CFB ([1]; Resmetirom 100 mg DB): 1.4 mg/L
- TBG (thyroxine-treated) LSM CFB ([1]; Resmetirom 100 mg DB): -0.2 mg/L
- TBG LSM CFB ([1]; Resmetirom 100 mg DB): 1.1 mg/L
- TSH (not on thyroxine) LSM CFB ([1]; Resmetirom 100 mg DB): −0.3 mIU/L
- TSH (thyroxine-treated) LSM CFB ([1]; Resmetirom 100 mg DB): −0.6 mIU/L
- TSH LSM CFB ([1]; Resmetirom 100 mg DB): −0.4 mIU/L
- rT3 (not on thyroxine) LSM CFB ([1]; Resmetirom 100 mg DB): -2.9 ng/dL
- rT3 (thyroxine-treated) LSM CFB ([1]; Resmetirom 100 mg DB): -4.9 ng/dL
- rT3 LSM CFB ([1]; Resmetirom 100 mg DB): -3.2 ng/dL
- FT3 (not on thyroxine) LSM CFB ([1]; Resmetirom 100 mg OL): -0.1 ng/L
- FT3 (thyroxine-treated) LSM CFB ([1]; Resmetirom 100 mg OL): -0.1 ng/L
- FT3/rT3 (not on thyroxine) LSM CFB ([1]; Resmetirom 100 mg OL): 0.05
- FT3/rT3 (thyroxine-treated) LSM CFB ([1]; Resmetirom 100 mg OL): 0.03
- FT3/rT3 LSM CFB ([1]; Resmetirom 100 mg OL): 0.04
- FT3 LSM CFB ([1]; Resmetirom 100 mg OL): -0.2 ng/L
- FT4 (not on thyroxine) LSM % CFB ([1]; Resmetirom 100 mg OL): −18.9%
- FT4 (not on thyroxine) LSM CFB ([1]; Resmetirom 100 mg OL): -0.2 ng/dL
- FT4 (thyroxine-treated) LSM % CFB ([1]; Resmetirom 100 mg OL): −14.8%
- FT4 (thyroxine-treated) LSM CFB ([1]; Resmetirom 100 mg OL): -0.2 ng/dL
- FT4 LSM % CFB ([1]; Resmetirom 100 mg OL): −16.1%
- FT4 LSM CFB ([1]; Resmetirom 100 mg OL): -0.2 ng/dL
- TBG (not on thyroxine) LSM CFB ([1]; Resmetirom 100 mg OL): 0.7 mg/L
- TBG (thyroxine-treated) LSM CFB ([1]; Resmetirom 100 mg OL): -1.0 mg/L
- TBG LSM CFB ([1]; Resmetirom 100 mg OL): 0.1 mg/L
- TSH (not on thyroxine) LSM CFB ([1]; Resmetirom 100 mg OL): −0.2 mIU/L
- TSH (thyroxine-treated) LSM CFB ([1]; Resmetirom 100 mg OL): 0.4 mIU/L
- TSH LSM CFB ([1]; Resmetirom 100 mg OL): 0.2 mIU/L
- rT3 (not on thyroxine) LSM CFB ([1]; Resmetirom 100 mg OL): -3.5 ng/dL
- rT3 (thyroxine-treated) LSM CFB ([1]; Resmetirom 100 mg OL): -3.9 ng/dL
- rT3 LSM CFB ([1]; Resmetirom 100 mg OL): -3.3 ng/dL
- effect on active hormone free triiodothyronine (FT3) ([1]; resmetirom arms): No effects
- effect on thyroid-stimulating hormone (TSH) ([1]; resmetirom arms): No effects
- prohormone FT4 levels, change from baseline ([1]; resmetirom arms): Minimal reductions from baseline
- NASH resolution / fibrosis improvement, 100 mg compared with 80 mg ([2]; 100 mg resmetirom group, except in patients ≥65 years): generally outperformed the 80 mg group
- patients achieving NASH resolution or fibrosis improvement compared with placebo ([2]; Week 52 biopsy, across subgroups): significantly more resmetirom-treated patients achieving either NASH resolution or fibrosis improvement
- response at both endpoints (NASH resolution, fibrosis improvement) by subgroup ([2]; patients with ≥30% liver fat reduction or SHBG increase ≥120%): greater response
